Laboratory results as given in PubChem BioAssay (NCI).
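Briefly, cells in 96-well plates were exposed to five compound concentrations for 48 h, and endpoints were estimated by linear interpolation. Abbreviation: GI50, concentration required for 50% inhibition of growth. TGI denotes the concentration required for complete inhibition of growth.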

Columns and labels:
Experiment in all cases: NCI tumour cell line growth inhibition, 48 h
SN12C renal = tested on: SN12C renal
SF-268 CNS = tested on: SF-268 CNS
IGROV1 ovarian = tested on: IGROV1 ovarian
HT29 colon = tested on: HT29 colon
COLO 205 colon = tested on: COLO 205 colon
OVCAR-4 ovarian = tested on: OVCAR-4 ovarian
OVCAR-5 ovarian = tested on: OVCAR-5 ovarian
OVCAR-3 ovarian = tested on: OVCAR-3 ovarian
PC-3 prostate = tested on: PC-3 prostate
HS 578T breast = tested on: HS 578T breast
UO-31 renal = tested on: UO-31 renal
NCI-H460 lung = tested on: NCI-H460 lung
NCI-H23 lung = tested on: NCI-H23 lung
SW-620 colon = tested on: SW-620 colon
SK-MEL-2 melanoma = tested on: SK-MEL-2 melanoma
NCI-H226 lung = tested on: NCI-H226 lung
A549 NSCLC = tested on: A549 NSCLC
OVCAR-8 ovarian = tested on: OVCAR-8 ovarian
HL-60(TB) leukemia = tested on: HL-60(TB) leukemia
HCT-116 colon = tested on: HCT-116 colon
KM12 colon = tested on: KM12 colon
MALME-3M melanoma = tested on: MALME-3M melanoma
SK-MEL-5 melanoma = tested on: SK-MEL-5 melanoma
UACC-257 melanoma = tested on: UACC-257 melanoma
SF-539 CNS = tested on: SF-539 CNS
MDA-MB-231 breast = tested on: MDA-MB-231 breast
BT-549 breast = tested on: BT-549 breast
NCI-H522 lung = tested on: NCI-H522 lung
SF-295 CNS = tested on: SF-295 CNS
SNB-75 CNS = tested on: SNB-75 CNS
RXF 393 renal = tested on: RXF 393 renal
UACC-62 melanoma = tested on: UACC-62 melanoma
SK-MEL-28 melanoma = tested on: SK-MEL-28 melanoma
SR leukemia = tested on: SR leukemia
HCT-15 colon = tested on: HCT-15 colon
EKVX NSCLC = tested on: EKVX NSCLC
RPMI-8226 leukemia = tested on: RPMI-8226 leukemia
K-562 leukemia = tested on: K-562 leukemia
DU-145 prostate = tested on: DU-145 prostate
TK-10 renal = tested on: TK-10 renal
LOX IMVI melanoma = tested on: LOX IMVI melanoma
A498 renal = tested on: A498 renal
MDA-MB-435 = tested on: MDA-MB-435
MCF7 breast = tested on: MCF7 breast
ACHN renal = tested on: ACHN renal
HCC-2998 colon = tested on: HCC-2998 colon
M14 melanoma = tested on: M14 melanoma
HOP-92 NSCLC = tested on: HOP-92 NSCLC
NCI/ADR-RES ovarian = tested on: NCI/ADR-RES ovarian
U251 CNS = tested on: U251 CNS
CAKI-1 renal = tested on: CAKI-1 renal
HOP-62 NSCLC = tested on: HOP-62 NSCLC
SK-OV-3 ovarian = tested on: SK-OV-3 ovarian
SNB-19 CNS = tested on: SNB-19 CNS
MOLT-4 leukemia = tested on: MOLT-4 leukemia
T-47D breast = tested on: T-47D breast
786-0 renal = tested on: 786-0 renal
CCRF-CEM leukemia = tested on: CCRF-CEM leukemia

COc1ccc(-c2nn(-c3cccc(Cl)c3)cc2-c2c(C#N)c(=O)n3[nH]c(-c4ccc(C)cc4)nc3c2C#N)cc1
GI50 (SN12C renal): 4.52 µM | TGI (SN12C renal): 11.5 µM | GI50 (SF-268 CNS): 1.62 µM | TGI (SF-268 CNS): 7.76 µM | GI50 (IGROV1 ovarian): 3.51 µM | TGI (IGROV1 ovarian): 11.3 µM | GI50 (HT29 colon): 1.49 µM | TGI (HT29 colon): > 50 µM | GI50 (COLO 205 colon): 2.32 µM | TGI (COLO 205 colon): 8.15 µM | GI50 (OVCAR-4 ovarian): 1.09 µM | TGI (OVCAR-4 ovarian): 4 µM | GI50 (OVCAR-5 ovarian): 4.5 µM | TGI (OVCAR-5 ovarian): 11.8 µM | GI50 (OVCAR-3 ovarian): 6.52 µM | TGI (OVCAR-3 ovarian): 13.7 µM | GI50 (PC-3 prostate): 1.7 µM | TGI (PC-3 prostate): 9.26 µM | GI50 (HS 578T breast): 1.23 µM | TGI (HS 578T breast): 15 µM | GI50 (UO-31 renal): 3.39 µM | TGI (UO-31 renal): 11.2 µM | GI50 (NCI-H460 lung): 1.85 µM | TGI (NCI-H460 lung): 8.31 µM | GI50 (NCI-H23 lung): 3.18 µM | TGI (NCI-H23 lung): 10.6 µM | GI50 (SW-620 colon): 0.521 µM | TGI (SW-620 colon): 2.73 µM | GI50 (SK-MEL-2 melanoma): 1.41 µM | TGI (SK-MEL-2 melanoma): 4.02 µM | GI50 (NCI-H226 lung): 2.39 µM | TGI (NCI-H226 lung): 9.62 µM | GI50 (A549 NSCLC): 1.85 µM | TGI (A549 NSCLC): 12.4 µM | GI50 (OVCAR-8 ovarian): 0.818 µM | TGI (OVCAR-8 ovarian): 2.99 µM | GI50 (HL-60(TB) leukemia): 8.33 µM | TGI (HL-60(TB) leukemia): 29.6 µM | GI50 (HCT-116 colon): 1.24 µM | TGI (HCT-116 colon): 6 µM | GI50 (KM12 colon): 3.39 µM | TGI (KM12 colon): 24.2 µM | GI50 (MALME-3M melanoma): 2.16 µM | TGI (MALME-3M melanoma): 9.12 µM | GI50 (SK-MEL-5 melanoma): 6.06 µM | TGI (SK-MEL-5 melanoma): 14 µM | GI50 (UACC-257 melanoma): 6.68 µM | TGI (UACC-257 melanoma): 16.7 µM | GI50 (SF-539 CNS): 1.28 µM | TGI (SF-539 CNS): 3.61 µM | GI50 (MDA-MB-231 breast): 1.16 µM | TGI (MDA-MB-231 breast): 5.25 µM | GI50 (BT-549 breast): 3.79 µM | TGI (BT-549 breast): 14.8 µM | GI50 (NCI-H522 lung): 1.45 µM | TGI (NCI-H522 lung): 4.89 µM | GI50 (SF-295 CNS): 1.2 µM | TGI (SF-295 CNS): 4.14 µM | GI50 (SNB-75 CNS): 0.828 µM | TGI (SNB-75 CNS): 2.4 µM | GI50 (RXF 393 renal): 0.858 µM | TGI (RXF 393 renal): 2.48 µM | GI50 (UACC-62 melanoma): 2.54 µM | TGI (UACC-62 melanoma): 10.2 µM | GI50 (SK-MEL-28 melanoma): 6.55 µM | TGI (SK-MEL-28 melanoma): 13.2 µM | GI50 (SR leukemia): 1.43 µM | TGI (SR leukemia): 10.1 µM | GI50 (HCT-15 colon): 9.95 µM | TGI (HCT-15 colon): > 50 µM | GI50 (EKVX NSCLC): 1.62 µM | TGI (EKVX NSCLC): 9.2 µM | GI50 (RPMI-8226 leukemia): 4.57 µM | TGI (RPMI-8226 leukemia): 33 µM | GI50 (K-562 leukemia): 1.43 µM | TGI (K-562 leukemia): > 50 µM | GI50 (DU-145 prostate): 2.74 µM | TGI (DU-145 prostate): 21.9 µM | GI50 (TK-10 renal): 2.01 µM | TGI (TK-10 renal): 7.35 µM | GI50 (LOX IMVI melanoma): 2.44 µM | TGI (LOX IMVI melanoma): 17.1 µM | GI50 (A498 renal): 0.575 µM | TGI (A498 renal): 7.63 µM | GI50 (MDA-MB-435): 1.48 µM | TGI (MDA-MB-435): 7.9 µM | GI50 (MCF7 breast): 3.22 µM | TGI (MCF7 breast): 11.4 µM | GI50 (ACHN renal): 2.41 µM | TGI (ACHN renal): 12.6 µM | GI50 (HCC-2998 colon): 5.04 µM | TGI (HCC-2998 colon): 10.8 µM | GI50 (M14 melanoma): 1.66 µM | TGI (M14 melanoma): 6.67 µM | GI50 (HOP-92 NSCLC): 0.723 µM | TGI (HOP-92 NSCLC): 4.88 µM | GI50 (NCI/ADR-RES ovarian): 9.43 µM | TGI (NCI/ADR-RES ovarian): 37.5 µM | GI50 (U251 CNS): 0.797 µM | TGI (U251 CNS): 1.59 µM | GI50 (CAKI-1 renal): 2.46 µM | TGI (CAKI-1 renal): 10.4 µM | GI50 (HOP-62 NSCLC): 0.884 µM | TGI (HOP-62 NSCLC): 2.19 µM | GI50 (SK-OV-3 ovarian): 3.3 µM | TGI (SK-OV-3 ovarian): 9.54 µM | GI50 (SNB-19 CNS): 2.17 µM | TGI (SNB-19 CNS): 18.2 µM | GI50 (MOLT-4 leukemia): 0.752 µM | TGI (MOLT-4 leukemia): 5.46 µM | GI50 (T-47D breast): 5.15 µM | TGI (T-47D breast): 12.1 µM | GI50 (786-0 renal): 1.39 µM | TGI (786-0 renal): 5.93 µM | GI50 (CCRF-CEM leukemia): 1.23 µM | TGI (CCRF-CEM leukemia): > 50 µM
